Experiments:
Mus musculus [1] = organism: Mus musculus; test: Tested for inhibition of specific [3H]- okadaic acid binding to the cytosolic fraction of mouse skin.; type: functional
Mus musculus [2] = organism: Mus musculus; test: Tested for inhibition of specific [3H]- okadaic acid binding to the cytosolic fraction of mouse liver.; type: functional
Mus musculus [3] = organism: Mus musculus; test: Tested for inhibition of specific [3H]- okadaic acid binding to the cytosolic fraction of mouse skin; type: functional
Mus musculus [4] = organism: Mus musculus; test: Tested for intra peritoneal dose at which compound dose not show toxicity in mouse; type: functional, organism-based

SMILES | ED50 (Mus musculus [1]) [nM] | ED50 (Mus musculus [2]) [nM] | ED50 (Mus musculus [3]) [nM] | DOSE (Mus musculus [4]) [mg/kg]
C=C1[C@@H](O)[C@@H]2O[C@]3(CC[C@H](/C=C/[C@@H](C)[C@@H]4CC(C)=C[C@@]5(O[C@H](C[C@@](C)(O)C(=O)O)CC[C@H]5O)O4)O3)CC[C@H]2O[C@@H]1[C@@H](O)C[C@H](C)[C@H]1O[C@@]2(CCCCO2)CC[C@H]1C [OKADAIC ACID] | 2.8 | 3.2 | – | –
C=C1C(=O)N[C@H](C)C(=O)N[C@@H](CC(C)C)C(=O)N[C@@H](C(=O)O)[C@H](C)C(=O)N[C@@H](CCCNC(=N)N)C(=O)N[C@@H](/C=C/C(C)=C/[C@H](C)[C@H](Cc2ccccc2)OC)[C@H](C)C(=O)N[C@@H](C(=O)O)CCC(=O)N1C (stereo in doubt; form 1) | – | – | 68 | –
C=C1C(=O)N[C@H](C)C(=O)N[C@@H](CC(C)C)C(=O)N[C@@H](C(=O)O)[C@H](C)C(=O)N[C@@H](CCCNC(=N)N)C(=O)N[C@@H](/C=C/C(C)=C/[C@H](C)[C@H](Cc2ccccc2)OC)[C@H](C)C(=O)N[C@@H](C(=O)O)CCC(=O)N1C (stereo in doubt; form 2) | – | 1.3 | 8 | 1
COC[C@@H]([C@H](O)[C@H](O)C(=O)NCC[C@H](C)c1nc(/C=C/C[C@@H]2O[C@]3(C[C@@H](O)[C@@H]2C)O[C@H]([C@H](C[C@H](O)[C@H](C)[C@H](O)[C@H](C)/C=C(C)/C(C)=C/C=C/C(C)=C\C#N)OC)[C@H](OP(=O)(O)O)C3(C)C)co1)N(C)C [CALYCULIN A] | – | – | 2.8 | –
